Measured values published in patent US20080261911A1, “Uses of diphenyl/diphenylamine carboxylic acids” (priority 2006, published 2008).

What was measured:
[1] = system: cleaved poly (ADP-ribose) polymerase (PARP) protein; assay: Apoptosis: cleaved PARP in Panc-1 cells, Western blot; type: cell-based; conditions: 48 hr
Method: Cells are washed once with phosphate buffered saline PBS and collected by scraping in 200 μL of lysis buffer [50 mM HEPES, 0.5M sodium chloride, 1.5 mM magnesium chloride, 1 mM EGTA, 10% (v/v) glycerol, 1% Triton X-100, 5 μL/ml of Protease Inhibitor Cocktail (Sigma)]. The lysates from the cells are incubated on ice for 1 hr with intermittent vortexing followed by centrifugation at 40,000 g for 10 min at 4° C. Equal amounts of protein (60 μg) from each treatment group are diluted with loading buffer, boiled and loaded onto 10 and 12.5% SDS-polyacrylamide gel. […] Samples are electrophoresed, transferred to membranes, and proteins detected by incubation with polyclonal primary antibodies Sp1, Sp3, Sp4, HDAC, VEGF (a-20), c-Met, surviving, VEGF, cleaved PARP, and β-tubulin (H-235) followed by blotting with appropriate horseradish peroxidase-conjugated secondary antibody as previously described (Abdelrahim et al, 2004). After autoradiography, band intensities are determined by a scanning laser densitometer (Sharp Electronics Corporation, Mahwah, N.J.) using ZERO-D SCANALYTICS software (Scanalytics Corporation, Billerica, Mass.).

[2] = system: VEGF promoter constructs pVEGF1 and pVEGF2; assay: VEGF promoter (pVEGF1/pVEGF2) luciferase transactivation in Panc-1 cells; type: cell-based; conditions: Panc-1 cells; for transactivation of pVEGF2, concentration dependence: 20-80 μM
Method: Transfection of Panc-1 cells with pVEGF1 and pVEGF2 and treatment with 50 μM ampiroxicam and tolfenamic acid (FIGS. 2A, 2B) or diclofenac sodium (FIGS. 2C, 2D) with pVEGF1 or pVEGF2 constructs. Cells were transfected with pVEGF1 or pVEGF2 treated with DMSO, 50 μM ampiroxicam, tolfenamic acid, or diclofenac sodium, and luciferase activity determined. Transfection of L3.6pl cells with pVEGF1 (FIG. 2E) or pVEGF2 constructs (FIG. 2F). […] Panc-1 cells were transfected with pVEGF2, treated with 20, 40, 60 or 80 μM ampiroxicam or tolfenamic acid, and luciferase determined. Results presented herein are means ±SE for three separate determinations per treatment group, and significant (p<0.05) decrease in luciferase activity is indicated by an asterisk.
(§1) Cells are cultured in 6-well plates in 2 ml of DME/F12 medium supplemented with 5% fetal bovine serum. After 16-20 hr when cells are 50-60% confluent, reporter gene constructs are transfected using LIPOFECTAMINE™ reagent (Invitrogen, Carlsbad, Calif.). The effects of the selective non-steroidal anti-inflammatory drugs on transactivation are investigated in Panc1 and L3.6pl cells co-transfected with different VEGF constructs (500 ng). […] For proteasome inhibitor experiments, cells will be co-treated with 2 μM lactacystin, and for electrophoretic mobility shift assay (EMSA), nuclear extracts from Panc1 and L3.6pl cells are isolated as described, and aliquots will be stored at −80° C. until used (Abdelrahim et al, 2004; Abdelrahim et al, 2005).
Previous studies have shown COX-2 inhibitors or small interfering RNAs for Sp proteins decreased vascular endothelial growth factor expression in colon and pancreatic cells (Abdelrahim et al, 2005; Baker et al, 2002; Masferrer et al, 2000; Bouwman et al, 2002). The effects of DMSO, 50 μM tolfenamic acid and 50 μM ampiroxicam on vascular endothelial growth factor expression were initially investigated in Panc-1 cells transfected with the pVEGF1 and pVEGF2 constructs, which contain −2018 to +50 and −131 to +54 VEGF promoter inserts, respectively (FIGS. 2A and 2B).

Panc-1 cells = assay: Panc-1 cell migration (scratch) assay on collagen IV-coated plates; type: cell-based; conditions: 50 μM; for VEGF-B-induced cell migration: VEGF-B 50 ng/ml, 16 h
Method: (§2) Cells were pretreated with DMSO, 50 μM ampiroxicam, or 50 μM tolfenamic acid for 36 hr; VEGF-B (50 ng/ml) was added for 5 or 10 min, and whole cell lysates were obtained and analyzed by Western blot. Cell migration assay (FIG. 18C). […] Immunostaining of pancreatic tumors (FIG. 18D). Pancreatic tumors from athymic nude mice treated with solvent (control), gemcitabine (50 mg/kg), or tolfenamic acid (25 and 50 mg/kg) (Dick, 1996) were stained with VEGFR1 antibodies as described below and in a previous report (Dick, 1996).
Panc-1 cells were pretreated with DMSO, 50 μM ampiroxicam, or 50 μM tolfenamic acid for 48 h, and then were treated with VEGF-B (50 ng/ml) for 5 and 10 min. MAPK phosphorylation in the various treatment groups was then determined by western immunoblot analysis as described above. For migration assays, Panc-1 cells were seeded in triplicate in six-well collagen IV coated plates and then treated with the selected non-steroidal anti-inflammatory drugs for 24 h before the scratch was made. A scratch through the central axis of the plate was gently made using a sterile pipette tip. Cells were 70% confluent when the scratch was made. […] Results of this study were obtained at a 16 h time point and one plate was stained using DIFF QUIK (Dade Behring, Newark, Del.).
(§3) Previous studies have reported that activation of VEGFR1 by VEGF-B in pancreatic cancer cells results in enhanced phosphorylation of MAPK and increased cell migration and invasion. […] The importance of Sp protein in VEGFR1-dependent Panc-1 cell migration was determined using a cell migration assay on collagen IV-coated plates.

[3] = system: VEGF-B/VEGFR1 signaling (MAPK1/2 phosphorylation); assay: VEGF-B activation of MAPK in L3.6pl cells; type: cell-based, human; conditions: 50 μM pretreatment for 36 hr, VEGF-B 5 or 10 min
[4] = system: VEGF-B/VEGFR1 signaling (MAPK1/2 phosphorylation); assay: VEGF-B activation of MAPK in Panc-1 cells; type: cell-based; conditions: 50 μM pretreatment for 36 hr, VEGF-B 5 or 10 min
Method: as §2
Panc-1 cells were pretreated with DMSO, 50 μM ampiroxicam, or 50 μM tolfenamic acid for 48 h, and then were treated with VEGF-B (50 ng/ml) for 5 and 10 min. MAPK phosphorylation in the various treatment groups was then determined by western immunoblot analysis as described above. For migration assays, Panc-1 cells were seeded in triplicate in six-well collagen IV coated plates and then treated with the selected non-steroidal anti-inflammatory drugs for 24 h before the scratch was made. […]
as §3

VEGFR1 promoter = VEGFR1 promoter (pVEGFR1A-C) luciferase activity in Panc-1 cells; type: cell-based; conditions: 50 μM
Method: as §1, with “FIGS. 17A-17D show effects of tolfenamic acid on the VEGFR1 promoter and mRNA expression. Transfection with pVEGFR1-A (FIG. 17A), pVEGFR1-B (FIG. 17B), and pVEGFR1-C (FIG. 17C). Panc-1 cells were transfected with pVEGFR1 constructs, treated with DMSO, 50 μM ampiroxicam, or 50 μM tolfenamic acid, and luciferase activity was determined as described in Materials and Methods. […] Results are shown for a single experiment and similar data was obtained in replicate experiments. Cells” for “Cells”

[5] = system: SEG-1 esophageal cancer cells; assay: Cell proliferation assay, SEG-1 esophageal cancer cells; type: cell-based; design: dose or concentration left out as unconfirmed; conditions: DMSO control
[6] = system: Sp protein interactions with VEGFR1 promoter sequences; assay: Gel mobility shift of Panc-1 nuclear extracts with VEGFR1 32P and GC/SP 32P; type: cell-based; conditions: nuclear extracts of Panc-1 cells treated with 50 μM for 48 h
Method: The specific Sp protein bands and antibody supershifted complexes are indicated with arrows.
Vascular endothelial growth factor and VEGFR1 oligonucleotides are synthesized and annealed, and 5 pmol aliquots are 5′-end-labeled using T4 kinase and [y-^32P]ATP. After the reaction sample was incubated 20 min on ice, and antibodies against Sp1, Sp3, and Sp4 proteins are added and incubated another 20 min on ice.
FIGS. 16A and 16B compare the gel mobility shift and antibody supershift patterns of nuclear extracts from Panc-1 cells bound to the proximal region of the VEGFR1 promoter containing both GC-rich and Egr-1 sites (VEGFR1^32P) or GC-rich sites alone (GC/SP^32P).

Panc-28 cells = assay: Cell proliferation assay, Panc-28 cells; type: cell-based
Method: FIGS. 7A-7D compares effects of tolfenamic acid and ampiroxicam on pancreatic cancer cell proliferation. […] Panc1, Panc28 and L3.6pl cells are seeded in DMEM/F12 media with 5% FBS and treated the next day with either vehicle (DMSO) or with the indicated compounds' concentrations. Cells are counted at the indicated times using a Z1™ COULTER COUNTER® cell counter. Each experiment is carried out in triplicate and results expressed as means ±SD for each determination.

Row | SMILES | poly (ADP-ribose) polymerase cleavage ([1]; 150 μM) | luciferase activity, pVEGF1 and pVEGF2 constructs ([2]; 50 μM) | luciferase activity, pVEGF2 ([2]; 50 μM, in presence or absence of lactacystin) | transactivation of pVEGF2, concentration dependence [2] | VEGF-B-induced cell migration (Panc-1 cells) | VEGF-B-induced phosphorylation of MAPK1/2 [3] | VEGF-B-induced phosphorylation of MAPK1/2 [4] | luciferase activity, pVEGFR1A, pVEGFR1B and pVEGFR1C (VEGFR1 promoter) | poly (ADP-ribose) polymerase cleavage ([1]; 50 μM) | growth of SEG-1 esophageal cancer cells [5] | cell migration in the absence of VEGF-B (Panc-1 cells; 16 h time point, DMSO set at 100%) | Sp1, Sp3, and Sp4-DNA retarded band intensity with VEGFR1 32P and GC/SP 32P [6] | potency as inhibitor of pancreatic cell growth relative to ampiroxicam (Panc-28 cells) | cell growth (Panc-28 cells; 25-100 μM, 6 days)
1 | CCOC(=O)OC(C)OC1=C(C(=O)Nc2ccccn2)N(C)S(=O)(=O)c2ccccc21 (centres unmarked) [ampiroxicam] | only tolfenamic acid induced protein degradation and poly (ADP-ribose) polymerase cleavage | but not ampiroxicam, significantly decreased activities | did not affect luciferase activity | showed no effect | inactive in all assays | increased phosphorylation of MAPK1/2 | increased phosphorylation of MAPK1/2 | but not DMSO or ampiroxicam, decreased luciferase activity |  |  |  |  |  | 
2 | Cc1c(Cl)cccc1Nc1ccccc1C(=O)O [tolfenamic acid] |  | significantly decreased activities |  | concentration-dependent decrease in transactivation | significantly inhibited VEGF-B-induced cell migration | decreased phospho-MARK1/2 | decreased phospho-MARK1/2 | decreased luciferase activity | induced protein degradation and poly (ADP-ribose) polymerase cleavage | inhibits growth | only significantly inhibited by tolfenamic acid | retarded band intensity was markedly decreased | more potent as an inhibitor of pancreatic cell growth than ampiroxicam | significantly (p<0.05) inhibited cell growth
